These results are taken from PubChem BioAssay (NCI).

Holding throughout (experiment): inhibition of tumour cell growth, NCI panel, 48 h
For test [1], the system named is IGROV1 ovarian.
The subject of test [2] is LOX IMVI melanoma.
In test [3] the test system is MDA-MB-231 breast.
The subject of test [4] is MDA-MB-435.
Test [5] concerns MDA-N.
The subject of test [6] is MOLT-4 leukemia.
Test [7] relates to NCI-H226 lung.
In test [8] the test system is OVCAR-5 ovarian.
Test [9] deals with SN12C renal.
In test [10] the test system is SR leukemia.

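A five-concentration, 48-hour dose response in 96-well plates underlies each endpoint, interpolated linearly between surrounding concentrations. TGI denotes the concentration required for complete inhibition of growth.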

On to `Cc1ccc([N+](=O)[O-])cc1S(=O)(=O)Nc1ccc(C2=NN(c3ccc([N+](=O)[O-])cc3[N+](=O)[O-])C(c3ccccc3)C2)cc1` (stereo not given), for which the TGI in test [1] was found to be 36 µM; in test [2] it was 32.2 µM; in test [3] it was 33.4 µM; in [4], 47.4 µM; in test [5] it was 35.5 µM; in test [6], 70.8 µM. Besides, the TGI in test [7] was found to be 35.6 µM; in test [8], 50.1 µM; in test [9] it was 33.2 µM; in test [10], 90 µM.

Turning to `CC(C)(CN)CN`, the TGI in [1], in [2], in test [3], in test [4], in test [5] and in test [6] was over 100 µM in each case. The TGI in test [7], in test [8], in test [9] and in test [10] was over 100 µM each time.

For `CC(=O)O/C=C\OC1CCCC1(c1ccccc1)c1ccccc1` (stereo not given), the TGI in test [1] turned out to be 6.08 µM; in test [2], 3.14 µM; in [3] it was 5.51 µM; in [4] it was 4.11 µM; in test [5], 5 µM; in [6] it was 9.07 µM. The TGI in test [7] worked out at 24.8 µM; in test [8] it was 15.3 µM; in test [9] it was 10.3 µM; in test [10], 4.93 µM.

For `Cc1ccc(C(=O)N(C2CCCCC2)C2CCCCC2)cc1N=NN(C)C`, the TGI was determined as 32.4 µM in test [1]; 30.2 µM in test [2]; 25.7 µM in test [3]; 30 µM in test [4]; 28.3 µM in test [5]; 76.7 µM in [6]. Further, the TGI came out at 39.5 µM in [7], 38.2 µM in test [8], 28.7 µM in [9] and 76.7 µM in test [10].

Regarding `Cc1cnoc1NC1=CC(=O)C(=O)c2ccccc21`, the TGI in [1] is over 100 µM; in test [2], over 100 µM; in test [3] it was over 100 µM; in [4], 2.64 µM; in test [5], 3.01 µM; in test [6], 38.8 µM. Further, the TGI is over 100 µM in test [7], 55.9 µM in test [8], 3.53 µM in test [9] and over 100 µM in test [10].

`Cc1c(C)c(C)c(-n2[nH]c(=O)n(C)c2=O)c(C)c1C`: the TGI in [1], in test [2], in test [3], in [4], in test [5] and in test [6] was over 100 µM throughout. For the same molecule, the TGI in test [7], in test [8], in test [9] and in test [10] was over 100 µM throughout.

Consider `COc1cc2c(cc1C[N+](C)(C)CSc1ccccc1)-c1ccccc1CC2`, for which the TGI was 12.5 µM in test [1]; 14.6 µM in test [2]; 10 µM in test [3]; 12.5 µM in [4]; 5.48 µM in [5]; 9.59 µM in test [6]. Also, the TGI in test [7] turned out to be 23.6 µM; in test [8], 24.3 µM; in test [9], 19.2 µM; in test [10], 7.55 µM.

In the case of `CCCCOC(=O)C(=O)C(CCC(=O)c1ccc(C)cc1)C(=O)C=C(C)C` (stereo not given), the TGI in test [1], in test [2], in [3], in [4], in test [5] and in test [6] was over 100 µM each time. Further, the TGI in [7], in [8], in test [9] and in test [10] was over 100 µM each time.

With `Cc1ccc2c(=O)cc(-c3csc4ccccc34)[nH]c2n1`, the TGI in test [1] is 16.7 µM; in [2] it was over 100 µM; in [3] it was 0.0836 µM; in test [4] it was under 0.01 µM; in test [5], under 0.01 µM; in [6] it was 1.09 µM. Also, the TGI turned out to be 0.0863 µM in [7], 6.47 µM in test [8], 10.9 µM in [9] and 0.142 µM in [10].

For the molecule `O=[N+]([O-])c1cccc(-c2csc(N=Nc3c(O)[nH]c4ccccc34)n2)c1`, the TGI is 54.6 µM in [1]; 42.5 µM in test [2]; 39.5 µM in [3]; over 100 µM in test [4]; over 100 µM in test [5]; 69.6 µM in test [6]. Further, the TGI in test [7] was 47.6 µM; in [8], over 100 µM; in test [9] it was 49.7 µM; in [10], 96.9 µM.

Regarding `CC(C)(C)OC(=O)n1cc(C2CNC(=O)C23CCC(=O)N3Cc2ccccc2)c2ccccc21` (stereo not given), the TGI in test [1] is 33.6 µM; in test [2], 44 µM; in [3], 39.9 µM; in test [4], 42.3 µM; in test [5], 85.5 µM; in [6], over 100 µM. In addition, the TGI is 41.4 µM in test [7], 40.8 µM in test [8], 32.4 µM in [9] and over 100 µM in [10].

Consider `O=C(Nc1ccccc1F)c1c(O)nc2sccn2c1=O`, for which the TGI in test [1], in [2], in test [3], in test [4], in test [5] and in test [6] was over 10 µM each time. The TGI in test [7], in test [8], in [9] and in test [10] was over 10 µM each time.

Turning to `CCCC/C=C1\CCC(CN2CCCCC2)C1=O` (stereo not given), the TGI in test [1] was 36.7 µM; in test [2], over 48.2 µM; in test [3], over 100 µM; in test [4], over 100 µM; in test [5], over 100 µM; in [6] it was 18.4 µM. Further, the TGI in [7] is 63.1 µM; in test [8] it was 49.9 µM; in [9], 25.9 µM; in test [10], over 24.7 µM.

For `COc1ccc2c(c1)OC(c1cccnc1)C(c1ccccc1)C2=O` (stereo not given), the TGI in test [1], in test [2], in test [3], in [4], in test [5] and in test [6] was over 100 µM each time. Besides, the TGI in test [7], in [8], in [9] and in [10] was over 100 µM in each case.

`CC(=O)c1ccc(N=Nc2ccc3nonc3c2N)cc1`: the TGI in test [1], in test [2], in [3], in test [4], in test [5] and in test [6] was over 100 µM in each case. For the same molecule, the TGI in test [7], in test [8], in test [9] and in [10] was over 100 µM each time.

As to `c1ccc(CNc2c3c(nc4ccccc24)CCC3)cc1`, the TGI in [1] was 42.4 µM; in test [2], 28.4 µM; in test [3] it was 27.1 µM; in test [4], 30.6 µM; in [5], 30.4 µM; in [6] it was 51 µM. Besides, the TGI in test [7] was 35.9 µM; in [8], 51.4 µM; in test [9], 34.9 µM; in test [10], 38.9 µM.

Take `Cc1ccc(N=Nc2c(C)nn(C(=O)CC(=O)Nc3ccccc3)c2C)cc1C`: the TGI in [1], in test [2], in [3], in test [4], in test [5] and in [6] was over 100 µM throughout. Moreover, the TGI in test [7], in [8], in [9] and in test [10] was over 100 µM in each case.

`CN(C)c1ccc(/C=N/Nc2nc3ccccc3c(=O)n2-c2ccccc2)cc1`: the TGI in test [1], in [2], in [3], in test [4], in test [5] and in test [6] was over 100 µM throughout. The TGI in test [7], in test [8], in test [9] and in test [10] was over 100 µM throughout.

For `O=C(Nc1sccc1S(=O)(=O)c1ccccc1)c1cccnc1`, the TGI is over 94.2 µM in test [1]; over 100 µM in test [2]; over 100 µM in [3]; 8.36 µM in test [4]; 3.63 µM in test [5]; over 100 µM in [6]. The TGI was over 59.3 µM in [7], over 100 µM in [8], over 100 µM in [9] and over 100 µM in [10].

On to `COc1ccc2nc3cc(Cl)ccc3c(NCCCCCC(=O)NC(COc3cnc4c(ccc5cccnc54)c3)COc3cnc4c(ccc5cccnc54)c3)c2c1`, for which the TGI in test [1] is over 100 µM; in [2] it was 86.4 µM; in test [3] it was 44 µM; in test [4], over 100 µM; in test [5], over 100 µM; in test [6] it was 11.6 µM. Also, the TGI was 21.8 µM in test [7], over 100 µM in test [8], over 100 µM in test [9] and 11.7 µM in test [10].
